Assay results as given in patent US8901120B2, “Substituted N-phenylpyrimidin-2-amine analogs as inhibitors of the Axl kinase” (University of Utah Research Foundation, priority 2011, dated 2014).
Where two headings read alike, the source gives them in different places.

Key:
[1] = molecular target: T1, recombinant human Axl kinase (catalytic domain, amino acids 473-894) (Homo sapiens, UniProt P30530); assay: Axl kinase activity assay (TR-FRET, fluorescein poly-GT substrate); format: biochemical
T1 construct: catalytic domain, amino acids 473-894; purchased Invitrogen Corporation, Carlsbad, Calif
T1 sequence (P30530 473-894): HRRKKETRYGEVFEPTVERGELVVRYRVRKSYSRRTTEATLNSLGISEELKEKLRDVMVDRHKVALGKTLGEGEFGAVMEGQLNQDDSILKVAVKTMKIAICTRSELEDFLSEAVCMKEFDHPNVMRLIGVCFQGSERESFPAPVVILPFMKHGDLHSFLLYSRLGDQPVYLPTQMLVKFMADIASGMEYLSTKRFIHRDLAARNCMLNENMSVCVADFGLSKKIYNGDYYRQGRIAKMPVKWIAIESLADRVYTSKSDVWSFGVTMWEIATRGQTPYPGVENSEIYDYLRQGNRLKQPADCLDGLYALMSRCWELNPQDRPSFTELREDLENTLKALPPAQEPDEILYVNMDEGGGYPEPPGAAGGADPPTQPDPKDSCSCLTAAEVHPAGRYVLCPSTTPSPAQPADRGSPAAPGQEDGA
Procedure: Test compounds were diluted to desired concentrations in kinase reaction buffer (50 mM HEPES pH 7.5, 10 mM MgCl2, 1 mM EGTA, 2 mM DTT, and 0.01% v/v Tween-20) and were briefly incubated with Axl kinase (Invitrogen Corporation, Carlsbad, Calif.). The Axl kinase used was recombinant human Axl kinase (catalytic domain, amino acids 473-894) with a histidine tag. The reaction was initiated by the addition of ATP and fluorescein-labeled poly-GT substrate (poly Glu:Tyr, 4:1 polymer; Invitrogen). Concentration of the various components in the assay (10 μl reaction volume) were: 1% DMSO, 93 ng/ml Axl kinase, 20 μM ATP, and 200 nM fluorescein poly-GT substrate. Following addition of ATP and fluorescein poly-GT substrate, incubation was for 60 min at room temperature, the enzyme reaction is stopped by addition of 10 μl terbium-labeled anti-phosphotyrosine PY20 antibody in EDTA-containing buffer. Final concentration of EDTA and antibody after addition to the reaction is 10 mM and 2 nM, respectively. The terbium conjugated antibody generates a time-resolved FRET signal with the fluorescein molecule (bound to the poly-GT substrate) when the substrate is phosphorylated. After one hour incubation at room temperature, fluorescence was measured with excitation of 320 nm and dual emission of 495 and 520 urn on an EnVision microplate reader (PerkinElmer). Signal is expressed in terms of a TR-FRET ratio (fluorescence intensity at 520 nm to 495 nm).
(§1) IC50 values are determined using GraphPad Prism 5 software. The data were entered as an X-Y plot into the software as percent inhibition for each concentration of the drug. The concentration values of the drug were log transformed and the nonlinear regression was carried out using the “sigmoidal dose-response (variable slope)” option within the GraphPad software to model the data and calculate IC50 values.

[2] = tested on: PL45; assay: Cell viability assay (ATP-Lite), PL45; format: cell-based; conditions: Homo sapiens; PL45, 96 hours
Procedure: (§2) All cell lines were cultured in media as recommended by American Type Culture Collection (“ATCC”; supplemented with 10% fetal bovine serum (“FBS”) and 1% penicillin/streptomycin (100 IU/ml pencillin and 100 μg/ml streptomycin) at 37° C. and 5% CO2. The cell lines used in these studies included those indicated in Table II below.
(§3) For cell proliferation assays, 45 μl containing 1000 cells per well were seeded into solid white 384-well plates in appropriate cell growth media containing 10% FBS and incubated overnight at 37° C. and 5% CO2. The following day, test compounds were diluted in serum free growth media to 10× desired concentrations and 5 μl was added to each well. Combined compound and cells were incubated for 96 hours. Following incubation, 40 μl of ATP-Lite solution (PerkinElmer, Inc., Waltham, Massachussetts) was added to each well, incubated for an additional 10 minutes at room temperature and luminescence was measured on an EnVision microplate reader. Percent cell viability for test compounds was calculated by comparing treated wells to appropriate controls (e.g. vehicle treated) included on each plate.
as §1
(§4) The ability of compounds to inhibit the viability of cultured cells was determined using the cell viability assay described above. Activity data for representative compounds is shown below in Table IV for the compounds was tested in the indicated cell lines (PL-45, PANC-1, PSN-1, HepG2, and […]). IC50 values were determined as described above. If IC50 value is indicated as “n.d.”, it means that the compound was […] in the indicated cell line. The compound number corresponds to the numbering used in Table I.

[3] = tested on: PANC-1; assay: Cell viability assay (ATP-Lite), PANC-1; format: cell-based; conditions: Homo sapiens; PANC-1, 96 hours
Procedure: as §2, §3, §1, §4

[4] = tested on: PSN-1; assay: Cell viability assay (ATP-Lite), PSN-1; format: cell-based; conditions: Homo sapiens, PSN1; PSN-1, 96 hours
Procedure: as §2, §3, §1
The ability of compounds to inhibit the viability of cultured cells was determined using the cell viability assay described above. […] IC50 values were determined as described above. If IC50 value is indicated as “n.d.”, it means that the compound was […] in the indicated cell line. The compound number corresponds to the numbering used in Table I.

[5] = tested on: HepG2; assay: Cell viability assay (ATP-Lite), HepG2; format: cell-based; conditions: Homo sapiens; HepG2, 96 hours
Procedure: as §2, §3, §1, §4

[6] = tested on: A549; assay: Cell viability assay (ATP-Lite), A549; format: cell-based; conditions: Homo sapiens; A549, 96 hours
Procedure: as §2, §3, §1, §4

[7] = 20 μM ATP, 93 ng/ml Axl kinase, 60 min, read-out: IC50 (Axl kinase activity)

SMILES | IC50 ([1]; tested in triplicate, FIG. 4A, read-out: IC50, inhibition of Axl activity) [nM] | IC50 [1, 7] [nM] | IC50 [3] [nM] | IC50 [5] [nM] | IC50 [6] [nM] | IC50 [2] [nM] | IC50 [4] [nM]
CN1CCN(Cc2ccc(Nc3ncc(Cl)c(Nc4ccccc4S(=O)(=O)N4CCCC4)n3)cc2)CC1 [5-chloro-N2-(4-((4-methylpiperazin-1-yl)methyl)phenyl)-N4-(2-(pyrrolidin-1-ylsulfonyl)phenyl)pyrimidine-2,4-diamine] | ~20 | – | – | – | – | – | –
CN1CCN(Cc2ccc(Nc3ncc(Cl)c(Nc4ccccc4S(=O)(=O)N4CCCC4)n3)cc2)CC1 [Compound 1] | – | 20 | 34 | 121 | 2 | 47 | 2
CN1CCN(Cc2ccc(Nc3ncc(Cl)c(Nc4ccccc4C(=O)NC4CC4)n3)cc2)CC1 [Compound 2] | – | 32 | 303 | 303 | 3 | 3 | 64
CN1CCN(Cc2ccc(Nc3ncc(Cl)c(Nc4ccc(F)cc4S(=O)(=O)N4CCCC4)n3)cc2)CC1 [Compound 3] | – | 37 | 93 | 43 | 4 | 17 | 9
CN1CCN(Cc2ccc(Nc3ncc(Cl)c(Nc4ccccc4S(=O)(=O)N(C)C)n3)cc2)CC1 [Compound 4] | – | – | 38 | 6 | 8 | 48 | –
CN1CCC(N(C)c2ccc(Nc3ncc(Cl)c(Nc4ccccc4S(=O)(=O)N(C)C)n3)cc2)CC1 [Compound 5] | – | 56 | 80 | – | – | 370 | –
CN1CCN(Cc2ccc(Nc3ncc(Cl)c(Nc4ccccc4C(=O)N4CCCC4)n3)cc2)CC1 [Compound 6] | – | 61 | 96 | 194 | 7 | 14 | 21
CN1CCN(Cc2ccc(Nc3ncc(Cl)c(Nc4ccccc4C(=O)N(C)C)n3)cc2)CC1 [Compound 7] | – | 88 | 142 | 57 | 19 | 95 | 70
CN1CCN(Cc2ccc(Nc3ncc(Cl)c(-c4ccc(F)cc4S(=O)(=O)N(C)C)n3)cc2)CC1 [Compound 8] | – | 99 | – | – | – | – | –
CN1CCN(Cc2ccc(Nc3ncc(Cl)c(-c4ccc(F)cc4S(=O)(=O)N4CCCC4)n3)cc2)CC1 [Compound 9] | – | 119 | 481 | 527 | 77 | 426 | 192
CN1CCN(Cc2ccc(Nc3ncc(Cl)c(Nc4ccc(F)cc4S(=O)(=O)N4CCOCC4)n3)cc2)CC1 [Compound 10] | – | 240 | – | – | – | – | –
Cc1cnc(Nc2ccc(CN3CCN(C)CC3)cc2)nc1-c1ccc(C(C)(C)C#N)cc1 [Compound 11] | – | 289 | 5780 | – | – | 8210 | 2550
Cc1cnc(Nc2ccc(N(C)C3CCN(C)CC3)cc2)nc1-c1ccc(F)c(Cl)c1 [Compound 12] | – | 416 | 10900 | – | – | 13700 | 6710
Cc1cnc(Nc2ccc(CN3CCN(C)CC3)cc2)nc1-c1cccc(Cl)c1 [Compound 13] | – | 445 | 7600 | – | – | 4820 | 2660
Cc1cnc(Nc2ccc(CN3CCN(C)CC3)cc2)nc1-c1ccc(F)c(Cl)c1 [Compound 14] | – | 730 | 7750 | – | – | 14400 | 4270
CN1CCN(Cc2ccc(Nc3ncc(Cl)c(Nc4ccc(Cl)cc4S(=O)(=O)N4CCCC4)n3)cc2)CC1 [Compound 15] | – | 1080 | – | – | – | – | –
CN1CCN(Cc2ccc(Nc3ncc(F)c(-c4ccc(F)cc4S(=O)(=O)N4CCCC4)n3)cc2)CC1 [Compound 16] | – | 1140 | – | – | – | – | –
CN1CCN(Cc2ccc(Nc3ncc(Cl)c(Nc4ccc(O)cc4S(=O)(=O)N4CCCC4)n3)cc2)CC1 [Compound 17] | – | 1310 | – | – | – | – | –
Cc1cnc(Nc2ccc(CN3CCN(C)CC3)cc2)nc1Oc1ccc(F)c(Cl)c1 [Compound 18] | – | 1400 | – | – | – | – | –
COc1cccc(-c2nc(Nc3ccc(CN4CCN(C)CC4)cc3)ncc2C)c1 [Compound 19] | – | 1610 | – | – | – | – | –

More lines, main results first:

IC50 ([1]; tested in triplicate, FIG. 4A, read-out: IC50, inhibition of Axl activity) [nM] | IC50 [1, 7] [nM] | IC50 [3] [nM] | IC50 [5] [nM] | IC50 [6] [nM] | SMILES | IC50 [2] [nM] | IC50 [4] [nM]
– | 1830 | – | – | – | Cc1ccc(-c2nc(Nc3ccc(CN4CCN(C)CC4)cc3)ncc2C)cc1C#N [Compound 20] | – | –
– | 1860 | – | – | – | Cc1cnc(Nc2ccc(CN3CCN(C)CC3)cc2)nc1-c1ccc(F)cc1 [Compound 21] | – | –
– | 2300 | – | – | – | CC(=O)Nc1cccc(-c2nc(Nc3ccc(CN4CCN(C)CC4)cc3)ncc2C)c1 [Compound 22] | – | –
– | 2910 | – | – | – | Cc1cnc(Nc2ccc(CN3CCN(C)CC3)cc2)nc1-c1cccc(S(C)(=O)=O)c1 [Compound 23] | – | –
– | 2930 | – | – | – | Cc1cnc(Nc2ccc(CN3CCN(C)CC3)cc2)nc1-c1ccc(F)cc1S(=O)(=O)N1CCCC1 [Compound 24] | – | –
– | 3300 | – | – | – | Cc1cnc(Nc2ccc(CN3CCN(C)CC3)cc2)nc1-c1cccc(OC(F)(F)F)c1 [Compound 25] | – | –
– | 3350 | – | – | – | CN1CCN(Cc2ccc(Nc3ncc(C4CC4)c(-c4ccc(F)c(Cl)c4)n3)cc2)CC1 [Compound 26] | – | –
– | 3900 | – | – | – | CN1CCN(Cc2ccc(Nc3ncc(Cl)c(N(C)c4ccc(F)cc4S(=O)(=O)N4CCCC4)n3)cc2)CC1 [Compound 27] | – | –
– | 5140 | – | – | – | Cc1cnc(Nc2ccc(CN3CCN(C)CC3)cc2)nc1-c1cc(Cl)cc(C(F)(F)F)c1 [Compound 28] | – | –
– | 57200 | – | – | – | CN1CCN(Cc2ccc(Nc3nc(N)cc(-c4ccc(F)c(Cl)c4)n3)cc2)CC1 [Compound 29] | – | –
– | 62700 | – | – | – | Cc1cnc(Nc2ccc(CN3CCN(C)CC3)cc2)nc1Nc1ccc(F)c(Cl)c1 [Compound 30] | – | –
– | > 100000 | – | – | – | CN1CCN(Cc2ccc(Nc3ncc(C(F)(F)F)c(Nc4ccccc4C(=O)N(C)C)n3)cc2)CC1 [Compound 31] | – | –
